Source: patent publication US20210260101A1, “POTENTIATED ANTIBIOTIC COMPOSITIONS AND METHODS OF USE FOR TREATING BACTERIAL INFECTIONS AND BIOFILMS” (priority 2018, published 2021)
Several values for one entry are separate records, joined by “and”; a condition that tells them apart may be missing. Identical values can stand only once. Like-named read-outs stand apart in the source and are kept apart here.

Tests used:
MRSA OU11 biofilms = assay: MBEC assay (MICCP and MBEC), MRSA OU11; type: cell-based, Staphylococcus aureus
Experimental: (§1) Bacterial culture was inoculated in an MBEC pronged-inoculator and incubated for 24 hr to allow biofilm formation. […] The change in optical density at 600 nm (Δ OD600) was measured. Minimum inhibitory concentration (MIC) of each drug is determined as the lowest concentration that inhibited cell growth (ΔOD600<0.05). Fractional inhibitory concentration index (FICI) was calculated as: […]
(§2) Synergistic effects are determined using EUCAST guidelines: synergy (FICI≤0.5), additivity (0.5<FICI<1), and indifference (FICI>1). The treated pronged-inoculator was then washed and transferred to a recovery plate with 200 μL MHB/well to sonicate and recover any remaining biofilm bacteria. The recovery plate was then incubated overnight before measuring ΔOD600 to determine MBECs and FICIs of the drugs tested on the biofilms.
(§3) MBEC assays were utilized on MRSA OU6 and MRSA OU11 and a lab strain MRSA ATCC 43300. The MRSA bacteria were used to inoculate a 96-well inoculation plate, where MRSA biofilms were grown on prongs protruding from the plate lid, known as the MBEC inoculator lid and based on the Calgary biofilm device. […] The final step was moving the treated inoculation lid to a third plate (the recovery plate) containing growth-media only and using sonication to dislodge the biofilm and recover cells remaining in the biofilm. In this manner, the synergy of BPEI and ampicillin against MRSA biofilms was evaluated. Standard CLSI (Clinical & Laboratory Standards Institute) guidelines describe a standard MIC assay using 96-well plates inoculated with a standard cell density, usually ˜10^6 CFU/mL. However, the MIC data reported here is non-standard because, rather than inoculation via micropipette transfer from an overnight culture, inoculation of the challenge plate occurs from the biofilm-coated inoculation lid where treatment challenge disrupts the protective biofilm EPS matrix. […] The MBEC is determined from cell growth in the recovery plate and reflects the ability of BPEI600, ampicillin, or its combinations to kill the biofilm remaining attached to the prongs of the inoculation lid. […]

MRSA OU6 biofilms = assay: MBEC assay (MICCP and MBEC), MRSA OU6; type: cell-based, Staphylococcus aureus
Experimental: as §1, §2, §3

MRSA 43300 biofilms = assay: MBEC assay (MICCP and MBEC), MRSA 43300; type: cell-based, Staphylococcus aureus
Experimental: as §1, §2, §3

PA OU19 = assay: Checkerboard assay, PA OU19; type: cell-based, Pseudomonas aeruginosa; conditions: for MIC: Pseudomonas aeruginosa, PA OU19
Experimental: (§4) Cells were grown at 35° C. with shaking. The OD600 (optical density at 600 nm) was monitored and recorded for each sample over 24 hr. Each checkerboard trial was done in triplicate using sterile Greiner CellStar™ flat bottom polystyrene plates, catalog #655180. Each growth curve was done in duplicate.

PA OU22 = assay: Checkerboard assay, PA OU22; type: cell-based, Pseudomonas aeruginosa; conditions: for MIC: Pseudomonas aeruginosa, PA OU22
Experimental: as §4

MRSA USA 300 ATCC 1717 = assay: Checkerboard MIC assay against MRSA USA300 (Example 1); type: cell-based, Staphylococcus aureus; conditions: MRSA USA300; for MIC: Staphylococcus aureus, agent alone, read-out: MIC of antibiotic only
PA OU15 = assay: Checkerboard assay, PA OU15; type: cell-based, Pseudomonas aeruginosa; conditions: for MIC: Pseudomonas aeruginosa, PA OU15
Experimental: as §4

[1] = test system: clinical isolates OU15, OU19, and OU22; assay: Checkerboard assay, isolates OU15, OU19 and OU22 reported together; type: cell-based, Pseudomonas aeruginosa; conditions: Pseudomonas aeruginosa
Experimental: as §4

E. coli 25922 = assay: MIC/potentiation against E. coli 25922; type: cell-based, Escherichia coli; conditions: 3×10^5 CFU/mL
[2] = test system: MRSE 35984 biofilm formation; assay: Crystal violet biofilm formation inhibition (MBIC); type: cell-based, Staphylococcus epidermidis
Description: Additionally, higher concentrations of BPEI corresponded to greater inhibition of biofilm formation.

[3] = test system: biofilms of P. aeruginosa BAA-47; assay: MBEC assay (Calgary biofilm device), PA BAA-47; type: cell-based, Pseudomonas aeruginosa
Experimental: A sub-culture of P. aeruginosa BAA-47 was grown from the cryogenic stock on an agar plate overnight at 35° C. The MBEC plate was inoculated with 150 μL of CAMHB/well plus 1 μL of a stock culture made from 1 colony/mL of P. aeruginosa BAA-47 in CAMHB (˜5×10^5 CFU/mL). The MBEC inoculator plate was sealed with Parafilm™ and incubated for 24 hr at 35° C. with 100 rpm shaking to facilitate biofilm formation on the prongs. Following biofilm formation, the lid of the MBEC inoculator was removed and placed in a rinse plate containing 200 μL of sterile PBS for 10 sec. […] Antimicrobial solutions were serial-diluted and added to the 96-well plate, which contained 200 μL of CAMHB per well. After the rinsing step, the preformed biofilm prong lid was immediately transferred into the prepared antimicrobial challenge plate and incubated at 35° C. for 20-24 hr. […] After incubation, the OD600 of the recovery plate was measured using a Tecan Infinite M20 plate reader to determine the MBEC of the antimicrobial compounds tested. […] Likewise, the OD600 for the base of the challenge plate was measured to determine the MICs of the antimicrobial compounds. The fractional inhibitory concentration index (FICI) calculated based on the established equation was used to determine synergy (FICI≤0.5), additivity (0.5<FICI<1), and no synergy (FICI≥1).

P. aeruginosa 27853 = assay: Checkerboard assay, P. aeruginosa 27853; type: cell-based, Pseudomonas aeruginosa
Experimental: (§5) Cells were grown at 37° C. The change in OD600 (optical density at 600 nm) was measured and recorded after 24 hr of treatment. Each checkerboard trial was done in triplicate using sterile Greiner CellStar™ flat bottom polystyrene plates, catalog #655180.
as §4

MRSE ATCC 29887 biofilm = assay: MBEC assay (challenge plate MIC, recovery plate MBEC), MRSE 29887; type: cell-based, Staphylococcus epidermidis
Experimental: A sub-culture of MRSE was grown from the cryogenic stock on an agar plate overnight at 35° C. The MBEC plate was inoculated with 150 μL of TSB/well plus 1 μL of a stock culture made from 1 colony/mL of MRSE in TSB. The MBEC inoculator plate was sealed with Parafilm and incubated for 24 hours at 35° C. with 100 rpm shaking to facilitate biofilm formation on the prongs. Following biofilm formation, the lid of the MBEC inoculator was removed and placed in a rinse plate containing 200 μL of sterile PBS for 10 sec. Biofilm growth check (BGC) was performed by breaking a few prongs off using sterile pliers, submerging them in 1 mL PBS, and sonicating them on high for 30 minutes to dislodge the biofilm. After sonication, the biofilm solution was serial-diluted and spot-plated on agar plates for CFU counting to determine the biofilm density on the prongs.
A challenge plate was made in a new pre-sterilized 96-well plate in a checkerboard-assay pattern to test the synergistic activity of BPEI+antibiotic combinations. […] After incubation, the OD600 (optical density at 600 nm) of the recovery plate was measured using a Tecan Infinite M20 plate reader to determine the MBEC of the antimicrobial compounds tested. […] Likewise, the OD600 for the base of the challenge plate was measured […] to determine the MICs of the antimicrobial compounds.

[4] = test system: P. aeruginosa ATCC BAA-47; assay: Checkerboard assay (Example 5), PA BAA-47; type: cell-based, Pseudomonas aeruginosa
Experimental: as §4

PA OU12 = assay: Checkerboard assay, PA OU12; type: cell-based, Pseudomonas aeruginosa
Experimental: as §4

[5] = test system: P. aeruginosa OU1 (PA OU1); assay: Checkerboard assay, clinical isolate PA OU1; type: cell-based, Pseudomonas aeruginosa
Experimental: as §5, §4

[6] = test system: P. aeruginosa PA01 ATCC BAA-47; assay: MIC/potentiation against P. aeruginosa PA01 (Example 1); type: cell-based, Pseudomonas aeruginosa; conditions: higher inoculum, 5 × 10^7 CFU/ml
[7] = read-out: cefepime MIC with 16 μg/mL of BPEI600

What does the source list for `CC1(C)S[C@@H]2[C@H](NC(=O)[C@H](N)c3ccccc3)C(=O)N2[C@H]1C(=O)O` [ampicillin]?
MICCP (MRSA OU11 biofilms; MRSA OU11, challenge plate, agent alone): 128 µg/mL; Ampicillin MBEC + 64 μg/mL BPEI (MRSA OU11 biofilms; MRSA OU11 biofilm): 32 µg/mL; MBEC (MRSA OU11 biofilms; MRSA OU11 biofilm, agent alone): >256 µg/mL; MICCP (MRSA OU6 biofilms; MRSA OU6, challenge plate, agent alone): 256 µg/mL; Ampicillin MBEC + 64 μg/mL BPEI (MRSA OU6 biofilms; MRSA OU6 biofilm): 64 µg/mL; MBEC (MRSA OU6 biofilms; MRSA OU6 biofilm, agent alone): >256 µg/mL; MICCP (MRSA 43300 biofilms; MRSA 43300, challenge plate, agent alone): 128 µg/mL; Ampicillin MBEC + 64 μg/mL BPEI (MRSA 43300 biofilms; MRSA 43300 biofilm): 2 µg/mL; MBEC (MRSA 43300 biofilms; MRSA 43300 biofilm, agent alone): >256 µg/mL

Which results are given for `CO/N=C(\C(=O)N[C@@H]1C(=O)N2C(C(=O)[O-])=C(C[N+]3(C)CCCC3)CS[C@H]12)c1csc(N)n1` [cefepime]?
MIC (PA OU19; [7]): 8 µg/mL; MIC (PA OU19; agent alone, read-out: MIC): 64 µg/mL; MIC (PA OU22; [7]): 8 µg/mL; MIC (PA OU22; agent alone, read-out: MIC): 128 µg/mL; MIC with 4 μg/ml (6.75 μM) 600-Da BPEI (MRSA USA 300 ATCC 1717): 1 µg/mL; MIC (MRSA USA 300 ATCC 1717): 4 µg/mL; MIC (PA OU15; [7]): 0.5 µg/mL; MIC (PA OU15; agent alone, read-out: MIC): 32 µg/mL

What does the source list for `CCN1CCN(C(=O)N[C@@H](C(=O)N[C@@H]2C(=O)N3[C@@H]2SC(C)(C)[C@@H]3C(=O)O)c2ccccc2)C(=O)C1=O` [piperacillin]?
MIC ([1]; read-out: piperacillin MIC with BPEI600 at ¼th of its MIC value): 1 to 4 µg/mL; MIC ([1]; isolates OU15, OU19, OU22, agent alone (data not shown), read-out: MIC): > 256 µg/mL; PIP MIC in combination with BPEI600 (PA OU19; BPEI600 amount in same cell): 1 µg/mL; MIC (PA OU19; agent alone, read-out: MIC): > 256 µg/mL; MIC (E. coli 25922; Escherichia coli, 25922, read-out: piperacillin MIC with 8 μg/mL (13.6 μM) of BPEI600): 0.125 µg/mL; MIC (E. coli 25922; Escherichia coli, 25922, read-out: piperacillin MIC with 32 μg/mL (34 μM) of PEG350-BPEI600): 0.25 µg/mL; MIC (E. coli 25922; Escherichia coli, 25922, alone, read-out: piperacillin MIC): 1 µg/mL; piperacillin concentration preventing biofilm growth with 8 μg/mL of BPEI [2]: 16 µg/mL; piperacillin concentration preventing biofilm growth with 16 μg/mL of BPEI [2]: 8 µg/mL; Minimum Biofilm Inhibitory Concentration (MBIC) ([2]; agent alone, 24 hours): 64 µg/mL; piperacillin MBEC in combination with BPEI600 ([3]; 16 μg/mL of BPEI): 8 µg/mL; MBEC ([3]; P. aeruginosa BAA-47 biofilm, agent alone): 256 µg/mL; PIP MIC in combination with BPEI600 (PA OU22; BPEI600 amount in same cell): 4 µg/mL; MIC (PA OU22; agent alone, read-out: MIC): > 256 µg/mL; MIC with 4 μg/ml (6.75 μM) 600-Da BPEI (MRSA USA 300 ATCC 1717): 1 µg/mL; MIC (MRSA USA 300 ATCC 1717): 4 µg/mL; PIP MIC in combination with BPEI600 (PA OU15; BPEI600 amount in same cell): 32 µg/mL; MIC (PA OU15; agent alone, read-out: MIC): 128 µg/mL; PIP MIC in combination with 600 Da BPEI (P. aeruginosa 27853; BPEI amount in same cell): 0.25 µg/mL; PIP MIC in combination with PEG-BPEI (P. aeruginosa 27853; PEG-BPEI amount in same cell): 0.5 µg/mL; MIC (P. aeruginosa 27853; Pseudomonas aeruginosa, PA 27853, agent alone, piperacillin only, no tazobactam): 4 µg/mL; piperacillin concentration eradicating biofilms with 128 μg/mL BPEI (MRSE ATCC 29887 biofilm; MRSE 29887 biofilm): 64 µg/mL; MIC (MRSE ATCC 29887 biofilm; Staphylococcus epidermidis, MRSE 29887, agent alone): 512 µg/mL; PIP MIC in combination with BPEI600 ([4]; BPEI600 amount in same cell): 1 µg/mL; MIC ([4]; Pseudomonas aeruginosa, PA BAA-47, agent alone): 4 µg/mL; PIP MIC in combination with BPEI600 (PA OU12; BPEI600 amount in same cell): 8 µg/mL; MIC (PA OU12; Pseudomonas aeruginosa, PA OU12, agent alone): 128 µg/mL; PIP MIC in combination with 600 Da BPEI [5]: 8 µg/mL and 4 µg/mL; PIP MIC in combination with PEG-BPEI ([5]; PEG-BPEI amount in same cell): 4 µg/mL; MIC ([5]; Pseudomonas aeruginosa, PA OU1, agent alone, piperacillin only, no tazobactam): 64 µg/mL; PIP MIC in combination with 600 Da BPEI ([5]; listed as PIP): 4 µg/mL; MIC, antibiotic + 0.5 μg/ml (0.85 μM) 600-Da BPEI [6]: 16 µg/mL; MIC, antibiotic + 4 μg/ml (4.25 μM) PEG350BPEI600 [6]: 32 µg/mL
